Entries after “also recorded” stand apart in the source; their conditions may differ. Where two headings read alike, the source gives them in different places.
Assays:
Type in all cases: biochemical
[1] = Online UPLC-PDA-MS-ABTS·+ scavenging (post-column derivatisation); conditions: online profiling of DOF extract
Experimental: Online identification of antioxidant components of DOF extract was performed using a UPLC system (Milford, MA, USA) consisting of a Waters photodiode array detector and a Waters postcolumn derivatisation system supplying fresh ABTS solution (UPLC-PDA-QDa-ABTS). […] The detection wavelengths were set at 280 and 734 nm, and the injection volume of the sample was 10 μl.
To detect radical scavengers, the UPLC system was coupled with a Waters pump, which supplied freshly prepared ABTS·+ solution into a reaction coil (15 m, 0.25 mm ID) with a flow rate of 0.2 ml/min at 37° C. Negative peaks were recorded based on a decrease of absorbance at 729 nm after the reaction of individual compounds with the ABTS·+ radical. For preliminary identification of compounds, a Waters Acquity QDa mass detector in negative ionisation mode was connected in series to PDA with the following parameters: electrospray ion source; cone voltage, 15 V; atomiser, N2; and scanning range, 100-800 m/z.

COX-2 = target: T1, COX-2 (Homo sapiens, UniProt P35354); assay: Anti-COX-2 assay (COX-2 Inhibitor Screening Kit)
T1 construct: purchased Beyotime S0168
T1 sequence (P35354 18-604): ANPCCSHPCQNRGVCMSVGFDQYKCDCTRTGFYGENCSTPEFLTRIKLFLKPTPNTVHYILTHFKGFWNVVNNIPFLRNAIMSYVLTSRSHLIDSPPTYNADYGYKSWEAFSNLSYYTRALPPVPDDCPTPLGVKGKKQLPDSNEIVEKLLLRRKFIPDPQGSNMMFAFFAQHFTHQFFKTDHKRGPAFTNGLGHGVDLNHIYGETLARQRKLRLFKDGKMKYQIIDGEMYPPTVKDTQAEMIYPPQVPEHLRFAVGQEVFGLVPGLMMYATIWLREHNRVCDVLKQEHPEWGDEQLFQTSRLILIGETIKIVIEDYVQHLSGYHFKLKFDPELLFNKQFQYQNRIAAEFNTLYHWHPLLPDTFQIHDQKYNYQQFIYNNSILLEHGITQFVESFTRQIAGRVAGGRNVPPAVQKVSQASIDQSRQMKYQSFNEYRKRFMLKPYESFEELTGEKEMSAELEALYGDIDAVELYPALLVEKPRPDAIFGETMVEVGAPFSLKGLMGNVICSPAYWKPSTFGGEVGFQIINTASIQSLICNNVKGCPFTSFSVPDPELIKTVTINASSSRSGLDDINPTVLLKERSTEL
Experimental: Anti-inflammatory activity was assessed by measuring COX-2 enzymatic inhibition on the basis of a described method by using the COX-2 Inhibitor Screening Kit (Beyotime, No. S0168). Celecoxib, a COX-2 inhibitor, was used as a positive control.

DPPH· scavenging assay = assay: DPPH· scavenging assay
[2] = FRAP total antioxidant capacity assay
Experimental: (§1) Fast colourimetric methods were slightly modified for the in vitro assessment of DPPH· scavenging, ABTS·+ decolourisation capacity, and total antioxidant capacity of FRAP. The stock solutions of derivatisation reagents were diluted as follows before measurement: DPPH was diluted with absolute ethanol until the absorbance was 0.8±0.05 at λ=517 nm. ABTS working solution was prepared with phosphate buffer (0.2 M, pH 7.4) to display absorbance of 0.8±0.05 at λ=729 nm, based on a previous study. The FRAP solution was prepared according to the instructions of the FRAP kit. Absorbances were measured using an automatic microplate reader (Molecular Group Ltd., USA), and all analyses were performed using 96-well plates. All measurements were performed in triplicate, and Trolox was used as a positive control.
For total antioxidant capacity, 180 μl of FRAP solution was mixed with 5 μl of sample solution, and the absorbance was measured after 5 min at […] with PBS as the negative control. FeSO4 solutions (0.15, 0.3, 0.6, 0.9, 1.2, and 1.5 mM) were used for the calibration curve. The FRAP value represents the corresponding concentration of FeSO4 solutions (mM FeSO4). The regression equation from the standard curve was used to calculate the equivalent concentration 1 (EC1) of each sample. EC1 is defined as the concentration of the test sample with an absorbance equivalent to that of 1.0 mmol/L of FeSO4 solution, determined by its calibration curve.

[3] = ABTS·+ decolourisation assay; conditions: for IC50: read-out: IC50 against the ABTS radical
Experimental: as §1
For ABTS·+ decolourisation capacity, 100 μl of ABTS working solution was mixed with 200 μl of sample solution, and the absorbance was recorded after 10 min at 729 nm. Phosphate buffer (0.2 M, pH 7.4) was used as a negative control.
DPPH· and ABTS·+ radical scavenging activities of the tested sample were both calculated using the following formula: […]
where A control and A sample represent the absorbance of the control and test samples, respectively. The IC50 was calculated graphically from the dose-inhibition curves.

Row | SMILES | ABTS radical scavenging by size of negative peaks at 734 nm (in words) [1] | COX-2 inhibition (in words) (COX-2) | antioxidant ability by DPPH (in words) (DPPH· scavenging assay) | antioxidant ability by FRAP (in words) [2] | other results
1 | O=C(/C=C/c1ccc(O)c(O)c1)O[C@@H]1O[C@H](CO)[C@@H](O)[C@H](O)[C@H]1O [Compound 5, 1-O-caffeoyl-β-D-glucoside] | strongest ABTS radical scavengers | – | – | – | –
2 | O=c1cc(-c2ccc(O)cc2)oc2c([C@@H]3O[C@H](CO)[C@@H](O)[C@H](O)[C@H]3O)c(O)c([C@@H]3O[C@H](CO)[C@@H](O)[C@H](O)[C@H]3O)c(O)c12 [Compound 10, Vicenin-2] | strongest ABTS radical scavengers | no inhibitory effects | – | – | –
3 | O=c1cc(-c2ccc(O)c(O)c2)oc2c(C3OC(CO)C(O)C(O)C3O)c(O)c(C3OCC(O)C(O)C3O)c(O)c12 [Compound 11, Luteolin-6-C-β-D-xyloside-8-C-β-D-glucoside] | strongest ABTS radical scavengers | great COX-2 inhibition; also recorded: outstanding COX-2 inhibitory effects | great antioxidant potency | great antioxidant potency | FRAP EC1 (mM) ([2]; Table 11, mean ± SD, n = 3): 1,009.1 µM
4 | O=c1cc(-c2ccc(O)cc2)oc2c([C@@H]3O[C@H](CO)[C@@H](O)[C@H](O)[C@H]3O)c(O)c([C@@H]3OC[C@@H](O)[C@H](O)[C@H]3O)c(O)c12 [Compound 14, Vicenin-1] | – | – | – | – | IC50 [3]: 96.4 ± 2.11 µM
5 | O=c1cc(-c2ccc(O)c(O)c2)oc2c(C3OCC(O)C(O)C3O)c(O)c(C3OC(CO)C(O)C(O)C3O)c(O)c12 [Compound 15, Luteolin-6-C-β-D-glucoside-8-C-β-D-xyloside] | – | great COX-2 inhibition; also recorded: outstanding COX-2 inhibitory effects | great antioxidant potency | great antioxidant potency | FRAP EC1 (mM) ([2]; Table 11, mean ± SD, n = 3): 1,100.3 µM
6 | O=c1c(OC2OC(CO)C(O)C(O)C2OC2OC(CO)C(O)C(O)C2O)c(-c2ccc(O)c(O)c2)oc2cc(O)cc(O)c12 (centres unmarked) [Compound 16, Quercetin-3-O-sophoroside] | strongest ABTS radical scavengers | great COX-2 inhibition; also recorded: outstanding COX-2 inhibitory effects | great antioxidant potency | great antioxidant potency | IC50 [3]: 6.63 ± 0.41 µM; FRAP EC1 ([2]; Table 11, mean ± SD, n = 3): 950 µM
7 | O=c1cc(-c2ccc(O)cc2)oc2c([C@@H]3OC[C@H](O)[C@H](O)[C@H]3O)c(O)c([C@@H]3O[C@H](CO)[C@@H](O)[C@H](O)[C@H]3O)c(O)c12 [Compound 17, Schaftoside] | – | no inhibitory effects | – | – | –
8 | O=c1cc(-c2ccc(O)c(O)c2)oc2cc(O)c(C3OC(CO)C(O)C(O)C3O)c(O)c12 [Compound 18, Luteolin-6-C-β-D-glucoside] | – | great COX-2 inhibition; also recorded: outstanding COX-2 inhibitory effects | great antioxidant potency | great antioxidant potency | FRAP EC1 ([2]; Table 11, mean ± SD, n = 3): 507 µM
9 | O=c1cc(-c2ccc(O)cc2)oc2c([C@@H]3OC[C@@H](O)[C@H](O)[C@H]3O)c(O)c([C@@H]3O[C@H](CO)[C@@H](O)[C@H](O)[C@H]3O)c(O)c12 [Compound 19, Vicenin-3] | – | no inhibitory effects | – | – | –
10 | O=c1cc(-c2ccc(O)cc2)oc2c([C@H]3OC[C@H](O)[C@H](O)[C@H]3O)c(O)c([C@@H]3O[C@H](CO)[C@@H](O)[C@H](O)[C@H]3O)c(O)c12 [Compound 21, Neoschaftoside] | – | – | great antioxidant potency | great antioxidant potency | –
11 | O=c1c(O[C@@H]2O[C@H](CO)[C@@H](O)[C@H](O)[C@H]2O)c(-c2ccc(O)c(O)c2)oc2cc(O)cc(O)c12 [Compound 25, Isoquercitrin] | strongest ABTS radical scavengers | great COX-2 inhibition; also recorded: outstanding COX-2 inhibitory effects | great antioxidant potency | great antioxidant potency | COX-2 inhibition (in words) (COX-2; listed as isoquercitrin): potent COX-2 inhibitory capacity; antioxidant ability by DPPH (in words) (DPPH· scavenging assay; listed as isoquercitrin): selective and significant antioxidant abilities; FRAP EC1 ([2]; Table 11, mean ± SD, n = 3): 520 µM; antioxidant ability by FRAP (in words) ([2]; listed as isoquercitrin): selective and significant antioxidant abilities
12 | O=c1cc(-c2ccc(O)cc2)oc2c([C@@H]3OC[C@@H](O)[C@H](O)[C@H]3O)c(O)c([C@@H]3OC[C@H](O)[C@H](O)[C@H]3O)c(O)c12 [Compound 26, Apigenin-6-C-α-L-arabinoside-8-C-β-D-xyloside] | – | no inhibitory effects | – | – | FRAP EC1 (mM) ([2]; Table 11, mean ± SD, n = 3): >5,000 µM
13 | O=C(O)CC(=O)OCC1OC(Oc2c(-c3ccc(O)c(O)c3)oc3cc(O)cc(O)c3c2=O)C(O)C(O)C1O (centres unmarked) [Compound 27, Quercetin 3-O-(6″-malonyl-glucoside)] | strongest ABTS radical scavengers | great COX-2 inhibition; also recorded: outstanding COX-2 inhibitory effects | great antioxidant potency | great antioxidant potency | FRAP EC1 ([2]; Table 11, mean ± SD, n = 3): 827 µM
14 | CC1OC(OCC2OC(Oc3c(-c4ccc(O)cc4)oc4cc(O)cc(O)c4c3=O)C(O)C(O)C2O)C(O)C(O)C1O (centres unmarked) [Compound 28, Kaempferol-3-O-rutinoside] | – | no inhibitory effects | – | – | –
15 | O=c1c(O[C@@H]2O[C@H](CO)[C@@H](O)[C@H](O)[C@H]2O)c(-c2ccc(O)cc2)oc2cc(O)cc(O)c12 [Compound 31, Astragalin] | – | no inhibitory effects | – | – | –
16 | COc1cc(-c2oc3cc(O)cc(O)c3c(=O)c2O[C@@H]2O[C@H](CO)[C@@H](O)[C@H](O)[C@H]2O)ccc1O [Compound 32, Isorhamnetin-3-O-glucoside] | – | – | – | – | IC50 (COX-2): 535 ± 150 µM; IC50 (DPPH· scavenging assay): 2370 µM; EC1 of FRAP [2]: 2,757.3±103.8 μM
17 | Cc1c(C)c2c(c(C)c1O)CCC(C)(C(=O)O)O2 (centres unmarked) [Trolox, 6-hydroxyl-2,5,7,8-tetra-methylchroman-2-carboxylic acid, reference compound] | – | – | – | – | ABTS IC50 ([3]; text b269): 27.68 ± 1.04 µg/mL; FRAP EC1 ([2]; Table 11, mean ± SD, n = 3): 560 µM; FRAP EC1 ([2]; concentration equivalent to 1.0 mmol/L FeSO4, text b269): 55.35 ± 5.22 µg/mL
